From patent publication US20110200531A1, “TREATMENT AND DIAGNOSIS OF CENTRAL NERVOUS SYSTEM DISORDERS” (THE REGENTS OF THE UNIVERSITY OF CALIFORNIA, priority 2009, published 2011) come the findings set out here.

“Also recorded” adds a separate entry of the source.

Data set [1] relates to 3×Tg-AD mice. Nature of the data set: Learning and memory in 3×Tg AD mice (novel object recognition, Morris water maze). Particulars: 16-month old 3×Tg-AD females. The data set is classed as in vivo. Here is the method: Both 16-month old 3×Tg-AD and background-matched wild type (WT) mice (females) were fed with TMPcontaining or nutrients matched control for 60 days as described in FIG. 3. (A) On day 61, all the mice were tested for object recognition as previously described. Briefly, mice (n=14 for each group) were habituated to a 60×30 cm container for 5 min. Two identical objects were placed in the bottom of the cage as mirror images of each other. The animal was trained for 5 min followed by a 5 min retention interval in the home cage. Then one of the objects in the test container was replaced with a novel object. During the 3-min probe trial, the mouse was placed in the cage and time spent investigating both objects was measured. A recognition index (R1) score is depicted as: (TimeN (in seconds for novel object)/TimeTotal (in seconds for both old and novel objects))×100. (B-D) Starting on day 62, all the mice were trained for 9 days on the Morris water maze (MWM) exactly as described for the behavior testing. […] (C) MWMprobe trial for number of platform location crosses, and (D) MWM probe trial for time spent in the target quadrant. As shown by the p values, (*) indicates significant improvement by TMP treatments with respect to the corresponding controls.
FIG. 21A-D: Improvement of learning and memory in aged 3×Tg AD mice by TMP treatment. Novel object recognition task was performed. A recognition index (R1) score is depicted as: [TimeN (in seconds for novel object)/TimeTotal (in seconds for both old and novel objects)]×100. B-D Starting on day 62, all the mice were trained for 9 days on the Morris water maze (MWM) for the behavior testing. […] (C) MWM probe trial for number of platform location crosses, and (D) MWM probe trial for time spent in the target quadrant. As shown by the p values, (*) indicates significant improvement by the compound treatments with respect to the corresponding controls.
TMP improves pathology in brains of 3×Tg-AD mice and results in increased memory and learning (See FIGS. 3, 4, and 10). In these mice, the earliest pathological hallmark is the accumulation of intraneuronal Aβ in the hippocampus, cortex and amygdala in 4 month old 3×Tg-AD homozygous mice. […] Between 4-6 months of age 3×Tg-AD homozygous mice develop diffuse amyloid plaques in the neocortex. At 6 months the retention deficits are associated with significant impairments in spatial learning of the Morris Water Maze task. […] Brain and retina pathology was evaluated by immunohistochemistry with specific antibodies and learning and memory performance were scored using the Novel Object Recognition Task and using Morris Water Maze trials.
The ability of TMP-N to improve learning and memory in 3×Tg AD mice was assessed using novel object recognition task. […]

Data set [2] concerns SH-SY5Y human neuroblastoma cells. Nature of the data set: Survival of SH-SY5Y cells following exposure to hydrogen peroxide. Particulars: for cell survival following exposure to hydrogen peroxide: SH-SY5Y, 25-50 μM, hydrogen peroxide 10-100 μM; for oxidative stress measured by production of malondialdehyde (MDA) and hydrogen peroxide: cultured cells (cell type not specified); for difference in protective efficacy between the two differently-sourced TMP compounds: statistical analysis, TMP-N vs TMP-S. The data set is classed as cell-based.

Data set [3] deals with mouse primary neurons. The experiment in a line: Survival of mouse primary neurons following exposure to hydrogen peroxide. The format is cell-based. Particulars: 25-50 μM, hydrogen peroxide 10-100 μM.
In data set [4] the test system is 5×FAD mice. The experiment in a line: Novel object recognition task in 5×FAD mice. The data set is classed as in vivo. Particulars: chow containing 300 mg/Kg from postnatal day 61 for 4 months; N=8-12. The protocol:
FIG. 22: Improvement of memory in 5×FAD mice by synthetic form of TMP treatments. Novel object recognition task was performed and depicted as FIG. 21.
Wild type littermates were used for comparison. All the mice were fed with normal chow (Vehicle) or containing 300 mg/Kg either TMP-N or TMP-S from postnatal day 61 for exactly 4 months until the day for the completion of behavioral assessments.

The test system of data set [5] is 5×FAD mouse brains. The experiment in a line: Abeta immunoreactivity (6E10) in 5×FAD mouse brains. The format is in vivo, mice. The conditions noted are these: chow containing 300 mg/Kg from postnatal day 61 for 4 months.
Text: Animal tissues were perfused with 1×PBS followed by overnight fixation in 4% paraformaldehyde in cold room. Vibrotome sections (˜50 μm thick) were immunostained with 6E10 antibody, which recognizes all forms of Abeta, and visualized by fluorescence microscopy.
The subject of data set [6] is 5×FAD mouse retinas. The experiment in a line: Retinal ganglion cell (RGC) quantification in 5×FAD mouse retinas. The format is in vivo, mice. The conditions noted are these: chow containing 300 mg/Kg from postnatal day 61 for 4 months. The protocol: FIG. 24: Preservation of retinal ganglion cells (RGC) in 5×FAD mice by TMP (see Section 6.3.1). Numbers of RGC of wild-type, control (Vehicle) and TMP-treated mice were quantified.
5×FAD mice and wild type littermates (control) were fed with normal chow (Vehicle) or chow containing 300 mg/Kg of either TMP-N or TMP-S (see Section 6.3.1) from postnatal day 61 for exactly 4 months until the day of analysis. RGC cells were quantified in cross retinal sections as described in Liu et al., American Journal of Pathology, 2009.

In data set [7] the test system is Tg2576 mice. The experiment in a line: Aβ-related vaccinations in Tg2576 mice: retinal and brain pathology. The format is in vivo. Particulars: for Aβ deposits in hippocampal and neocortical areas of brain (6E10) / Aβ immunoreactivity in retinal microvessels / retinal amyloid angiopathy score: 10-month vaccination; for Aβ immunoreactivity in retinal microvessels / retinal amyloid angiopathy score: Aβ and vWF double-labeled microvessels, vs sham-immunized Tg2576. The protocol:
The Aβ oligomer antigen was prepared from Aβ1-40 based on our previously published work (Kayed et al., 2003). Briefly, lyophilized Aβ1-40 peptides were resuspended in 50% acetonitrile in water and relyophilized. Soluble prefibrillar oligomers were prepared by dissolving 1.0 mg of peptide in 400 μl of hexafluoroisopropanol for 10˜20 minutes at room temperature. The resultant seedless solution (100 μl) was added to 900 μl of MilliQ H2O in a siliconized Eppendorf tube. After 10˜20 minutes incubation at room temperature, the samples were centrifuged for 15 minutes at 14,000×g, and the supernatant fraction (pH 2.8˜3.5) was transferred to a new siliconized tube and subjected to a gentle stream of N2 for 5˜10 minutes to evaporate the hexafluoroisopropanol. […] Oligomers were validated by atomic force microscopy, electron microscopy, and size exclusion chromatography as described previously (Kayed et al., 2003). The Aβ fibril was prepared from Aβ1-42, because it is more fibrillogenic as compared with Aβ1-40. Aβ1-40, predominantly in fibrillary form, was previously studied in a randomized, double-blind, placebo-controlled phase 2a clinical trial, study AN1792(QS-21)-201 by Gilman and colleagues (Gilman et al., 2005). Fibrils were formed by dissolving the lyophilized Aβ1-42 in 50% hexafluoroisopropanol and stirred with closed caps for 7 days. Solution is stirred again for 2 days in capped tubes with 20-gauge needle holes on the top to allow the hexafluoroisopropanol to evaporate. This whole preparation was done in a fume food to accelerate evaporation and minimize falling of dust or other foreign material. Fibrils were precipitated by centrifugation for 15 minutes at 14,000 rpm and washed in PBS, and resuspended at 2 mg/ml. For the prefibrillar oligomer antigen, Aβ oligomer (AO) molecular mimic was prepared by conjugating Aβ1-40 via a C-terminal thioester to 5-nm colloidal gold as described previously (Kayed and Glabe, 2006). […] Immunization schemes were conducted in a similar way as described previously (Zhou et al., 2005). […] Administration of an equivalent volume of PBS with the adjuvant but without any peptide antigen to both wild-type and transgenic mice was used as control. All experimental procedures were performed under protocols approved by the University of California Irvine Institutional Animal Care and Use Committee. Tissue Preparation: Mice were deeply anesthetized with an overdose of Nembutal (100 mg/kg, i.p.) and perfused transcardially with ice-cold PBS. The eyes were directly collected and fixed overnight with 4% paraformaldehyde in PBS (pH 7.4, 4° C.) following brain removal. Fixed eyes were stored in PBS containing 20% sucrose and 0.05% sodium azide (NaN3) at 4° C. until use. Following removal of lenses with forceps fixed eyes were cryomolded with OCT. Cross-retinal cryostat sections (12 μm) were thaw-mounted onto “Superfrost plus” glass slides (Fisher, Tustin, Calif.), air-dried for 30 minutes and stored at 4° C. before staining. […] Immunohistochemistry and Quantification: […] The immunoreactivity of APP, hyperphosphorylated tau (AT8), and Aβ in selected sections was also detected using the avidin-biotin complex method, followed by staining with DAB and brief counterstaining with hematoxylin. […] The results were evaluated by either fluorescence or conventional microscopy with a Leica DM microscope. Images were recorded using a Spot II charge-coupled device camera with equal exposure times for all different groups of tissues. […]

`Cc1nc(C)c(C)nc1C` [TMP-N, tetramethylpyrazine]: in data set [1] (TMP diet 60 days, trained 9 days from day 62), the “Morris water maze (MWM) acquisition performance” value is “significantly improved the performance of 3×Tg-AD mice”. Also, in data set [1] (TMP-containing diet), the “learning and memory (object recognition, MWM probe trials)” value is “significantly restored learning and memory”. Also, in data set [2], the “cell survival following exposure to hydrogen peroxide” value (“cell survival following exposure” for short) is “significantly increased cell survival”; the “oxidative stress measured by production of malondialdehyde (MDA) and hydrogen peroxide” value was “remarkable reduction of oxidative stress”; the “difference in protective efficacy between the two differently-sourced TMP compounds” value was “no significant difference”. Further, the “cell survival following exposure” value in data set [3] is listed as “significantly increased cell survival”. For the same molecule, the “memory performance, novel object recognition task” value in data set [4] is “some negative effects; also recorded: slight negative effect on the memory performance”. In data set [5], the “Abeta immunoreactivity / deposits in brain (6E10)” value is “Abeta deposits were decreased in both cortical and hippocampal regions”. Besides, in data set [6], the “number of retinal ganglion cells (RGC)” value is recorded as “slightly preserved RGC; also recorded: slight protective effect on RGC”.

For `Cc1nc(C)c(C)nc1C` [TMP-S, tetramethylpyrazine], in data set [2], the “cell survival following exposure” value is given as “significantly increased cell survival”; the “oxidative stress measured by production of malondialdehyde (MDA) and hydrogen peroxide” value is on record as “remarkable reduction of oxidative stress”; the “difference in protective efficacy between the two differently-sourced TMP compounds” value is given as “no significant difference”. For the same molecule, the “cell survival following exposure” value in data set [3] is reported as “significantly increased cell survival”. The “memory performance, novel object recognition task” value in data set [4] was “significantly improved memory performance; also recorded: significantly improved this performance”. Besides, the “number of retinal ganglion cells (RGC)” value in data set [6] was “significantly preserved RGC; also recorded: significantly increased number of RGC”.

Take “AF: Aβ fibril prepared from Aβ1-42; vaccine immunogen”: in data set [7], the “Aβ deposits in hippocampal and neocortical areas of brain (6E10)” value is “notably less Aβ deposits”; the “Aβ immunoreactivity in retinal microvessels / retinal amyloid angiopathy score” value is on record as “even greater Aβ immunoreactivity”.

Turning to “AO: Aβ oligomer molecular mimic prepared by conjugating Aβ1-40 via a C-terminal thioester to 5-nm colloidal gold; vaccine immunogen”, the “number of Aβ plaques / Aβ deposits in retina” value in data set [7] (100 μg s.c. with incomplete Freund's adjuvant once a month for 10 months, vs PBS adjuvant) is on record as “significant reduction in the number of Aβ plaques”. Moreover, in data set [7], the “Aβ deposits in hippocampal and neocortical areas of brain (6E10)” value was “notably less Aβ deposits”; the “Aβ immunoreactivity in retinal microvessels / retinal amyloid angiopathy score” value was “even greater Aβ immunoreactivity”.
